# Assay results: US12290651B2, “Devices and methods for the treatment of body surface disorders” (Verrica Pharmaceuticals Inc., priority 2017, dated 2025)
# Values joined by “and” are separate entries in the source; they are usually repeats but may differ in a detail not shown here. Equal values may be shown once.
# Assay: Pharmacokinetic results from Phase II clinical trial: systemic exposure (plasma cantharidin) after topical application (Example 3)
# Format: in vivo, human
# Experimental: This example describes pharmacokinetic results from a Phase II clinical trial for the treatment of skin lesion resulting from Molluscum contagiosum. Patients received administrations of the cantharidin composition in Table 2 to Molluscum contagiosum lesions every 21 days for a maximum of 4 sessions or until complete clearance. Blood samples for systemic exposure evaluation were collected on Day 1, prior to the drug application, and 2 (±30 minutes), 6 (±1 hour) and 24 (±3 hours) hours post-application. The average age of the subjects was 7±3.5 years. The average body weight of the subjects was 58±34.6 lb. The average number of lesions per subject was 43.7±24.2.
smiles,measurement,setting,value
C[C@@]12C(=O)OC(=O)[C@]1(C)[C@H]1CC[C@@H]2O1 [cantharidin],plasma concentration of cantharidin,"all subjects, all times sampled (2, 6, 24 hours post-application)",less than 3.3 ng/ml
same,Exposure (plasma concentration of cantharidin),"one line per subject, topical cantharidin composition of Table 2 on molluscum lesions, blood at 2, 6 and 24 hours post-application on Day 1, LLOQ 2.5 ng/ml",<2.5 ng/ml (16×) and 3.3 ng/ml
same,subjects with plasma concentration of cantharidin above the lower limit of quantification (2.5 ng/ml),seventeen subjects,Only one of the seventeen subjects
same,plasma concentration of cantharidin,"subjects as young as 2 years old, having over 100 lesions, having genital lesions, with as many as 2.26 lesions per lb: below LLOQ",< 2.5 ng/mL
